A short description of data set [1]: Excitation and emission wavelengths of optical agents. It is filed as physicochemical. The note with it: see Example 3 and FIG. 4. The text has this:
In one exemplary embodiment, the optical agent is excited by light having a wavelength in the blue range of the visible portion of the electromagnetic spectrum (from about 430 nm to about 500 nm) and emits at a wavelength in the green range of the visible portion of the electromagnetic spectrum (from about 520 nm to about 565 nm). For example, fluorescein dyes can be excited with light with a wavelength of about 488 nm and have an emission wavelength of about 520 nm. As another example, 3,6-diaminopyrazine-2,5-dicarboxylic acid can be excited with light having a wavelength of about 470 nm and fluoresces at a wavelength of about 532 nm (see Example 3 and FIG. 4 herein).
In another embodiment, the excitation and emission wavelengths of the optical agent may fall in the near-infrared range of the electromagnetic spectrum. For example, indocyanine dyes, such as indocyanine green, can be excited with light with a wavelength of about 780 nm and have an emission wavelength of about 830 nm.

The nature of data set [2]: Renal clearance in an intact rat (fluorescence from within the ear). To be noted: bolus injection into lateral tail vein, 2 ml of 0.4 mg/ml in PBS, 470 nm laser at ear. It is filed as in vivo, Sprague-Dawley rat. The procedure: (§1) Incident laser light having a wavelength of about 470 nm was delivered via a fiber optic bundle to the ear of an anesthetized intact Sprague-Dawley rat. A photodetector was used to detect fluorescence from within the ear. A background reading of fluorescence was obtained prior to administration of optical agent. A pyrazine agent (2 ml of a 0.4 mg/ml solution of 3,6-diaminopyrazine-2,5-dicarbonyl acid in PBS) was then administered to the rat by a bolus injection into the lateral tail vein.
The blood clearance time profile likely followed a two compartment pharmacokinetic model. The fluorescent signal arising from the agent concentration in the blood as a function of time was therefore fit to a double exponential decay. The equation employed to fit the data was: S=Ae^−t/τ1Be^−t/τ2+C (1) where S is the fluorescent light intensity signal measured, and t is the time point of the measurement. The decay times τ1 and τ2, and the constants A, B, and C were deduced from the fitting procedure. The non-linear regression analysis package in SigmaPiot® (Systat Software Inc., Richmond Calif.) was used to fit data to Eq. (1). In this and the following example, τ1 represents the time constant for vascular-extracellular fluid equilibrium, and T2 represents optical agent clearance from the blood.

Data set [3] in a line: Renal clearance in a bilaterally nephrectomized rat (fluorescence from within the ear). It is filed as in vivo, Sprague-Dawley rat. To be noted: bilaterally nephrectomized rat compared with intact rat. The procedure: as §1, with “An anesthetized Sprague-Dawley rat was bilaterally nephrectomized. Incident” for “Incident”, “of the” for “of an anesthetized intact Sprague-Dawley”, “of the pyrazine” for “of optical”, “agent. The” for “agent. A”, “vein. […] Specifically, the renal arteries were tied off to block blood flow to the kidneys.” for “vein.”
A comparison of clearance data from the intact rat (FIG. 1) and the bilaterally nephrectomized rat (FIG. 2) is shown in FIG. 3.

Data set [4] is described as follows: Detection of optical agent in a rat ureter by fluorescence. The class given is in vivo, Sprague-Dawley rat. How it is done:
A Sprague-Dawley rat was anesthetized with a cocktail of ketamine (87 mg/kg) and xylazine (2.6 mg/kg) administered by intraperitoneal injection. After the animal had achieved the desired plane of anesthesia, a 25 gauge butterfly with 3″ tubing was placed in the lateral tail vein of the animal and flushed with saline, The rat was placed onto a heating pad and kept warm throughout the study.
An abdominal incision was made to access the ureters and expose the ureters to a laser having the appropriate wavelength to cause the optical agent employed to fluoresce. Data acquisition was initiated, and a background reading of fluorescence was obtained prior to administration of the optical agent.
The optical agent, 3,6-diaminopyrazine-2,5-dicarboxylic acid, was administered to the rat by a bolus injection into the lateral tail vein and traveled through the circulatory system and kidneys to reach the ureters. The dose of optical agent was about 2 mL of 0.4 mg/mL solution in PBS. The rat weighed approximately 250 g.
A 3 mW laser from Power Technology, Inc. (Little Rock, […].) was used to emit light into one end of a fiber optic bundle, the other end of the bundle being positioned adjacent the ureter. […] As shown in FIGS. 5-6, when the surgical field was exposed to incident light having a wavelength of about 470 nm, the optical agent within the ureters emitted fluorescent energy at a wavelength of about 530 nm. Images of the surgical field showing the fluorescing optical agent in the ureter are shown in FIGS. 5-6 (in the absence of a 500 nm long pass filter) and FIG. 7 (in the presence of a 500 nm long pass filter).

The conditions of data set [5]: general statement in the description; cited from earlier work.

Read-outs that look alike come from different tables or passages of the source.

Take `Nc1nc(C(=O)O)c(N)nc1C(=O)O` [3,6-diaminopyrazine-2,5-dicarboxylic acid]: the fluorescence emission wavelength result in data set [1] (excitation about 470 nm) is given as “about 532 nm”. Also, in data set [1], the excitation wavelength result was “about 470 nm”. Also, in data set [2], the “period over which the agent was cleared from the bloodstream” value is “slightly over twenty”. Besides, the “route of excretion concluded from failure to clear” value in data set [3] is on record as “renally excretable”. For the same compound, the “fluorescence emission wavelength within the ureters” value in data set [4] (incident light of about 470 nm, in vivo in rat ureter) is “about 530 nm”. In addition, the “time after intravenous administration at which fluorescence within the ureter was detected” value in data set [4] (rat, about 2 mL of 0.4 mg/mL in PBS, tail vein bolus) is given as “about 40 minutes”. For the same compound, the “localisation of fluorescence in the surgical field” value in data set [4] (rat, ureter versus surrounding tissue) was “only observed from the ureter and not from any surrounding tissue”.

As for `CC1(C)C(/C=C/C=C/C=C/C=C2\N(CCCCS(=O)(=O)O)c3ccc4ccccc4c3C2(C)C)=[N+](CCCCS(=O)(=O)[O-])c2ccc3ccccc3c21` [indocyanine green], in data set [5], the emission wavelength entry is “about 830 nm” and the excitation wavelength result is recorded as “about 780 nm”.

The values are drawn from patent US11351274B2, “Methods of using optical agents” (MediBeacon Inc., priority 2006, dated 2022).
